Measured values: US20130171141A1, “COMBINATION OF HDAC INHIBITORS WITH THROMBOCYTOPENIA DRUGS” (NOVARTIS AG, priority 2010, published 2013)

How the values were obtained:
murine platelet lifespan = assay: Platelet clearance analysis (biotinylated platelet lifespan) in HDACi-treated mice; settings: for decrease in labelled (biotinylated) platelets in peripheral blood over time: IV NHS-biotin, seven days, 10 mg/kg panobinostat IP or 1 mg/kg romidepsin IP daily, compared to vehicle
Experimental: Mice were twice injected intravenously (IV), one hour apart, with 600 μg NHS-biotin in phospho-buffered saline (PBS) and 10% dimethyl sulphoxide (DMSO). At various time points peripheral blood was isolated from the tail, and 1 μl blood was washed twice in PBS and 10 mM EDTA. Platelets were stained with phycoerythrin-conjugated rat anti-CD41 and allophycocyanin-conjugated streptavidin (APC-A) for 30 minutes on ice. Samples were washed again and incubated with 0.125 μg/ml thiazole orange, which has increased uptake in high RNA-containing platelets, staining younger, reticulated platelet fraction, for 90 minutes. Flow cytometry was then performed on an LSR flow cytometer. By plotting the number of biotinylated platelets against time, an estimate of the life span was obtained by linear extrapolation, while the number of thiazole orange-positive, non-biotinylated platelets provided an estimate of new platelet production.
The mice were then treated for seven days with either 10 mg/kg panobinostat IP or 1 mg/kg romidepsin IP daily or vehicle, and the number of biotinylated platelets in peripheral blood was determined. […] ABT-737 is a BH3 mimetic that inhibits Bcl-xL, which causes direct platelet apoptosis. […] Megakaryocytes are the haematopoietic cells responsible for the production of platelets which reside in the bone marrow.

reticulated platelets = assay: Reticulated platelet staining (thiazole orange), new platelet production; type: in vivo, C57BL/6 mice; settings: for absolute number of reticulated (new) platelets: 6 day experiment, thiazole orange, FIG. 2
Experimental: To assess platelet production, C57BL/6 mice were treated with panobinostat, carboplatin and ABT-737, and the RNA-containing platelet fraction (i.e. new platelets) was determined by staining with thiazole orange (FIG. 2). The number of new, reticulated platelets in vehicle-treated mice remained relatively constant over the 6 day time span of the experiment.

thrombocytopenia (TCP) = assay: HDACi-induced thrombocytopenia and co-treatment with TPO-mimetic; type: in vivo; settings: wild-type C57BL/6 mice, 10 mg/kg IP daily, 12-day period
Experimental: To determine whether administration of a TPO-mimetic could ameliorate TCP, some of the panobinostat-treated mice were subjected to co-treatment with 20 μg/kg AMP-4 at day 0 and day 6 (FIG. 3).
To determine whether administration of a TPO-mimetic could ameliorate TCP, some of the romidepsin-treated mice were subjected to co-treatment with 20 μg/kg AMP-4 at day 0 and day 6 (FIG. 4).

platelet count [1] = assay: Compound III with eltrombopag in Hodgkin's lymphoma patient; type: in vivo, human; settings: recommended dosage of compound III, Example 1
Experimental: (§1) A patient having Hodgkin's lymphoma is given the recommend dosage of compound III. […] A patient having Hodgkin's lymphoma is tested for thrombocytopenia. Patient is found to have a low blood cell count or a biomarker for thrombocytopenia. Patient is put on a regimen of compound III together with eltrombopag.

platelet count [2] = assay: Compound III with eltrombopag in multiple myeloma patient; type: in vivo, human; settings: recommended dosage of compound III, Example 3
Experimental: as §1, with “patient having multiple myeloma patient is given” for “patient having Hodgkin's lymphoma is given”

reduction in platelet number (murine platelet lifespan; biotinylated platelets, two hours following administration) [%] | decrease in labelled (biotinylated) platelets in peripheral blood over time (murine platelet lifespan; mice, FIG. 1) | absolute number of reticulated (new) platelets (reticulated platelets; C57BL/6 mice) | thrombocytopenia (TCP) (thrombocytopenia (TCP)) | platelet count versus baseline (reticulated platelets; C57BL/6 mice, throughout the course of the experiment) | patient's platelet count (platelet count [1]) | patient's platelet count (platelet count [2]) | Compound | platelet life span (murine platelet lifespan; mice, FIG. 1) | absolute reticulated platelet numbers (reticulated platelets; 6 days after the commencement of treatment) | new platelet production (reticulated platelets; first 4 days of treatment)
 |  |  |  |  |  |  | N.N.O=C([O-])C1(C(=O)[O-])CCC1.[Pt+2] [carboplatin] | did not affect | significantly reduced | did not significantly affect
50 | rapidly reduced | substantial increase |  |  |  |  | CN(C)CC[C@H](CSc1ccccc1)Nc1ccc(S(=O)(=O)NC(=O)c2ccc(N3CCN(Cc4ccccc4-c4ccc(Cl)cc4)CC3)cc2)cc1[N+](=O)[O-] [ABT-737] |  |  | 
 | remained similar to vehicle-treated mice |  | sustained TCP |  |  |  | C/C=C1\NC(=O)[C@H]2CSSCC/C=C/[C@H](CC(=O)N[C@H](C(C)C)C(=O)N2)OC(=O)[C@H](C(C)C)NC1=O [romidepsin] |  |  | 
 | remained similar to vehicle-treated mice | dramatic decrease | sustained TCP | remained well below baseline levels | begins to lower | begins to lower | Cc1[nH]c2ccccc2c1CCNCc1ccc(/C=C/C(=O)NO)cc1 [panobinostat, N-hydroxy-3-[4-[[[2-(2-methyl-1H-indol-3-yl)-ethyl]-amino]methyl]phenyl]-2E-2-propenamide] |  |  | 
